Experimental data from BindingDB's records for doi:10.1021/jm100498u (Massachusetts General Hospital, 2010).

Target: T1, Gamma-aminobutyric acid receptor subunit alpha-1/beta-2/gamma-2 (Homo sapiens, UniProt P14867+P18507+P47870)
T1 sequence (P14867 whole entry): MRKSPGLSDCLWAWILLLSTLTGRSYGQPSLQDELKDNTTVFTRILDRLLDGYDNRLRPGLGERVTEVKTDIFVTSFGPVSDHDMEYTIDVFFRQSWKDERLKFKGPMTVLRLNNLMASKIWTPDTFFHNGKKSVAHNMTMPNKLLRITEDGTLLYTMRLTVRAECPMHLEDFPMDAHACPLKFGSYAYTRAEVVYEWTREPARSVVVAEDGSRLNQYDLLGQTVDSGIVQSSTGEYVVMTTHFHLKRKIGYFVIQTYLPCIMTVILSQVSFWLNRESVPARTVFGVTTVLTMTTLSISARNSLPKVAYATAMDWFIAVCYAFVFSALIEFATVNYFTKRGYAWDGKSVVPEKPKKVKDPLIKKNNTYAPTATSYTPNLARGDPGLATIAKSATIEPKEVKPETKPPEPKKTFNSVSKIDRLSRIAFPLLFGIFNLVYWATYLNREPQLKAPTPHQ
T1 sequence (P18507 whole entry): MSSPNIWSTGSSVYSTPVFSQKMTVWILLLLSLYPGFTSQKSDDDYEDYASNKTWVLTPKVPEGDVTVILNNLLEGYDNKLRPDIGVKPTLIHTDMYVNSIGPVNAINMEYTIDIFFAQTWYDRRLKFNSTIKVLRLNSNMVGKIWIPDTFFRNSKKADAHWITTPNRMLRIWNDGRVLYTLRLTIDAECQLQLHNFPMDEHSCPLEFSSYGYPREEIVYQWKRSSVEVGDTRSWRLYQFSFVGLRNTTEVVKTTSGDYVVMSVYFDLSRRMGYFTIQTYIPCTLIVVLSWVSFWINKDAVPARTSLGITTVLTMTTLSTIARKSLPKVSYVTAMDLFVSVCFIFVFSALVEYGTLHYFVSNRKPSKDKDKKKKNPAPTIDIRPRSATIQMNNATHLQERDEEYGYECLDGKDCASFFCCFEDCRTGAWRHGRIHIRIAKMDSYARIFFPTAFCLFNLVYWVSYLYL
T1 sequence (P47870 whole entry): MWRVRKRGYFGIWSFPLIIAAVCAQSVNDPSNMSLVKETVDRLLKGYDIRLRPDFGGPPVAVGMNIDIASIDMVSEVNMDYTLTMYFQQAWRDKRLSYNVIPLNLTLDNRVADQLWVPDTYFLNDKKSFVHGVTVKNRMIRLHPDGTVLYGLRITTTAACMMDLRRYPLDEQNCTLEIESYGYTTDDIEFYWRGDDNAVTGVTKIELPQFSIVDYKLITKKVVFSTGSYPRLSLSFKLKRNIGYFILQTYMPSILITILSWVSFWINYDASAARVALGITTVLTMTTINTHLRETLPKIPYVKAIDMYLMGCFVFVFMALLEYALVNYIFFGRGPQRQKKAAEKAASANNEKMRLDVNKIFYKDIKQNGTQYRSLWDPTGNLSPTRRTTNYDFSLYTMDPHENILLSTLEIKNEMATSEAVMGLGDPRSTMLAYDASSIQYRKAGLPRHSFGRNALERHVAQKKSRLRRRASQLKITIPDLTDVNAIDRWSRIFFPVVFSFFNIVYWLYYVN
Experiment: Agonist activity at human GABA-A alpha-1-beta-2-gamma-2 receptor expressed in Xenopus laevis

SMILES	EC50 [µM]
CCOC(=O)c1cncn1[C@H](C)c1ccc(C2(C(F)(F)F)N=N2)cc1	30
CCOC(=O)c1cncn1[C@@H](C)c1ccc(C2(C(F)(F)F)N=N2)cc1	6.4
